Measurements from BigSolDB 2.1.

O=C(O)c1cccc(O)c1O
solubility (mole fraction)
Conditions | 278.15 K | 283.15 K | 288.15 K | 293.15 K | 298.15 K | 303.15 K | 308.15 K | 313.15 K | 318.15 K
in acetone | 0.0969 | 0.0987 | 0.101 | 0.105 | 0.108 | 0.113 | 0.116 | 0.121 | 0.127
in acetonitrile | 0.00923 | 0.0101 | 0.0108 | 0.0115 | 0.013 | 0.0147 | 0.0158 | 0.0174 | 0.0198
in ethanol | 0.0838 | 0.0855 | 0.0884 | 0.0907 | 0.0944 | 0.0973 | 0.101 | 0.105 | 0.11
in ethyl acetate | 0.0459 | 0.048 | 0.0513 | 0.0547 | 0.059 | 0.0613 | 0.066 | 0.0719 | 0.0761
in ethyl formate | 0.0232 | 0.0245 | 0.0258 | 0.0277 | 0.0301 | 0.0321 | 0.0351 | 0.0374 | 0.0411
in isopentanol | 0.0569 | 0.0605 | 0.064 | 0.067 | 0.0709 | 0.0744 | 0.0803 | 0.0859 | 0.0904
in isopropanol | 0.0697 | 0.0727 | 0.0764 | 0.0824 | 0.0879 | 0.0902 | 0.0976 | 0.103 | 0.11
in isopropyl acetate | 0.0426 | 0.045 | 0.0494 | 0.0532 | 0.0568 | 0.0602 | 0.0644 | 0.0696 | 0.0728
in methyl acetate | 0.0466 | 0.0493 | 0.0529 | 0.0571 | 0.0594 | 0.0621 | 0.0665 | 0.0726 | 0.0764
in n-butanol | 0.0653 | 0.0683 | 0.0706 | 0.0737 | 0.0766 | 0.0806 | 0.0853 | 0.0903 | 0.0952
in n-propanol | 0.0664 | 0.07 | 0.0727 | 0.0761 | 0.0788 | 0.084 | 0.0873 | 0.0915 | 0.0977
in n-propyl acetate | 0.0454 | 0.048 | 0.0504 | 0.0534 | 0.0564 | 0.0581 | 0.0615 | 0.0672 | 0.0721
